Tests used:
[1] = system: Escherichia coli; assay: IN and IO staining of bacterial colonies under anaerobic conditions; assay type: cell-based; settings: for D: Diffusion around colonies / G: Growth of colonies / I: Intensity of color / L: Localization on colonies / S: Size of colonies: Nutrient Agar plates, anaerobically incubated with E. coli
Method: Nutrient Agar plates containing 150 mg/l of various substrates and 100 mg/l IPTG were inoculated with Escherichia coli. Plates were put in an anaerobic jar (Anaerojar, Oxoid), an AnaeroGen sachet (Oxoid) was added, the jar was closed and incubated for 24 hours at 37° C.
IN staining cannot be used under anaerobic conditions.

[2] = system: Klebsiella pneumoniae; assay: IO staining of bacterial colonies on Blood Agar plates; assay type: cell-based; settings: 24 h on Blood Agar, 150 mg/l I21a and 100 mg/l IPTG; on Growth: key: −: absent; +/−: weak; +: strong; ++: very strong
Method: Standard commercially available Blood Agar plates were impregnated with 150 mg/l 1-(2-benzoylphenyl)-6-chloro-1H-indol-3-yl-beta-D-galactopyranoside (I21a) and 100 mg/l IPTG. The plate was inoculated with Klebsiella pneumoniae.
IO stain contrasts very well with the agar plate. Further, despite the quenching effect of blood IO fluorescence is fully maintained and readily detectable.

[3] = biological target: E. coli beta-galactosidase (Escherichia coli, UniProt P00722)
Chain of E. coli beta-galactosidase (P00722 2-1024): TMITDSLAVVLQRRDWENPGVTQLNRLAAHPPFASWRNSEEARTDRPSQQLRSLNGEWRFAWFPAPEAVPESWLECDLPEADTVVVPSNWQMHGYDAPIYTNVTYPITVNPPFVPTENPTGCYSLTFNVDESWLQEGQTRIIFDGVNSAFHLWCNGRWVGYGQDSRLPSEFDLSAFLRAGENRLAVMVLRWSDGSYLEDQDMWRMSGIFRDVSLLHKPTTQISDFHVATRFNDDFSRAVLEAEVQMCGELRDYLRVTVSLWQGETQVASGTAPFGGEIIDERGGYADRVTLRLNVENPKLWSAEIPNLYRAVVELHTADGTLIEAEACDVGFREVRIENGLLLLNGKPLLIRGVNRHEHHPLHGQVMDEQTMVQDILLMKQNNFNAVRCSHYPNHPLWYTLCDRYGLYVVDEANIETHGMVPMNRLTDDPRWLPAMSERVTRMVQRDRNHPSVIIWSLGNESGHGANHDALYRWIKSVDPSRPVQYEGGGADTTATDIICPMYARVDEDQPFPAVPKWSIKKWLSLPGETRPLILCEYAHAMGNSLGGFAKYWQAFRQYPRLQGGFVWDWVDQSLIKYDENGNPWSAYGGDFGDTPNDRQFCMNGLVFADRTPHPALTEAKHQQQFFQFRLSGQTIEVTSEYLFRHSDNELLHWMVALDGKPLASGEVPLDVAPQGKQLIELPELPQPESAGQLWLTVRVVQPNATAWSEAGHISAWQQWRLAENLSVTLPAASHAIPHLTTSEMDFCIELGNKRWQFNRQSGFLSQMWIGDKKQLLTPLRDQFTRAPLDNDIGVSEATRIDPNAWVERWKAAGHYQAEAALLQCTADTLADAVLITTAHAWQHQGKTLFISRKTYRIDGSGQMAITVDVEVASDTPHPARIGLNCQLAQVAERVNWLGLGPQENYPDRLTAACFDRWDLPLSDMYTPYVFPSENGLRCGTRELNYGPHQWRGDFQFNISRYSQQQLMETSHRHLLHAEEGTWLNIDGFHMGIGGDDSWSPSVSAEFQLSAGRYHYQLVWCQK
Method: Enzymatic reactions were performed in 100 mM Na2PO4 buffer, pH 7.3 containing 1 mM MgCl2 and 670 mg/l enzyme substrate. E. coli beta-galactosidase or K. lactis lactase were added to a final concentration of 1000 U/I or 1500 U/I, respectively. 30 ml reaction volumes were incubated for 5-18 hours at 37° C. with gentle shaking. The reaction product was collected by centrifugation (4400 g, 15 min), pellets were washed with 10 ml H2O and centrifuged again (4400 g, 15 min).

[4] = system: Shigella dysenteriae Serovar 1 131; assay: IO staining of colonies of beta-D-galactosidase positive/negative bacteria (Table IVb); assay type: cell-based; settings: Shigella dysenteriae Serovar 1 strain 131, b-gal +/−; 24 h on Nutrient Agar, 150 mg/l indicator, 100 mg/l IPTG
[5] = system: Yersinia enterocolitica 175; assay: as above; assay type: cell-based; settings: Yersinia enterocolitica strain 175, b-gal +/−; 24 h on Nutrient Agar, 150 mg/l indicator, 100 mg/l IPTG; on G: Growth of colonies: key: −: absent; +/−: weak; +: strong; ++: very strong
[6] = system: beta-D-galactosidase positive/negative bacteria; assay: IO staining of colonies of beta-D-galactosidase positive/negative bacteria (Table IVb), hue named in column head; assay type: cell-based; settings: hue of fluorescence of stained colonies; 24 h on Nutrient Agar, 150 mg/l indicator, 100 mg/l IPTG
[7] = system: beta-galactosidase positive Eschericha coli (NM1); assay: IO staining of bacterial colonies on Nutrient Agar (color, fluorescence, localization, growth); on C: Color of colonies (strength): key: −: absent; +/−: weak; +: strong; ++: very strong; on F: Fluorescence of colonies (strength): key: −: absent; +/−: weak; +: strong; ++: very strong; on G: Growth of colonies: key: −: absent; +/−: weak; +: strong; ++: very strong; on L: Localization of stain on colonies: key: −: absent; +/−: weak; +: strong; ++: very strong; assay type: cell-based, E. coli; settings: 150 mg/l substrate and 100 mg/l IPTG
How it was run: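 Indicators were added at 150 mg/l final, optionally with 100 mg/l IPTG, to nutrient agar at pH 7.4. Plates were inoculated with β-gal-positive E. coli NM1 or β-gal-negative S. enteritidis and incubated at 37 °C. Colony color was inspected at 16–48 h under white light, and fluorescence under 366 nm UV and by plate-reader scans of 48 h cells.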

[8] = system: beta-galactosidase negative Salmonella enteritidis (RKI 05/07992); assay type: cell-based; settings: S. enteritidis (b-gal negative), 24 h, 150 mg/l substrate and 100 mg/l IPTG; further: key: −: absent; +/−: weak; +: strong; ++: very strong
Method: Nutrient Agar (5 g/l peptone, 5 g/l NaCl, 2 g/l yeast extract, 1 g/l beef extract, 13 g/l agar, pH 7.4) was autoclaved and allowed to cool to 50° C. Then indicators were added to final concentrations of 150 mg/l (from a 20 mg/ml stock solution in DMF).
Optionally IPTG was added to 100 mg/l (from a 100 mg/ml stock solution in H2O) and plates were poured. Agar plates were inoculated with cultures of beta-galactosidase positive Eschericha coli (NM1) or beta-galactosidase negative Salmonella enteritidis (RKI 05/07992) (pre-grown on nutrient broth for 8-18 hours) and incubated at 37° C. Plates were inspected at 16, 20, 24 and 48 hours and pictures were recorded at 18, 24, and 48 hours with a Digistore 2 Image documentation system (CAMAG) under white light.
A considerable number of indicators molecules (Table IVa, IVb) and a selection of labile groups (Table IVc) were tested with various microbial species producing different biomarker enzymes (external stimuli, eS). The color of stains ranges from yellow to red.
Plating media from Example 10 were examined under 366 nm UV irradiation at 16, 20, 24 and 48 hours for fluorescence by means of Digistore 2 Image documentation system (CAMAG). Loops of bacterial cells, grown for 48 hours on Nutrient Agar plates containing 150 mg/l beta-D-galactosidase indicator and 100 mg/l IPTG, were directly streaked into wells of black clear bottom microtiter plates. Fluorescence scans were recorded on a Spectramax M5 (Molecular Devices).

[9] = system: enteric bacterial cells; assay: MDAB staining of bacterial colonies with indicators I4a and I5a on Tryptic Soy Agar, aerobic and anaerobic; assay type: cell-based; settings: Salmonella manhattan (b-gal −); aR MDAB, equivalents 1:1; TSAYE with 40 mg/100 ml of indicator
Method: Tryptic Soy Agar (TSA) with yeast extract (0.6%) was used as the base plating medium. The media were autoclaved at 121° C. for 15 minutes and placed in a 50° C. water bath to cool. Indicators were added to the basal medium at a final concentration of 40 mg/100 ml (from 80 mg/ml stock solutions in DMF). Over night cultures of enteric bacterial cells in Brain Heart Infusion Broth were streaked onto the plates and incubated at 35° C. for 24 hours under aerobic and anaerobic conditions. After incubation, the colonial morphologies on the plates were recorded (Table III).
Weak staining was observed occasionally due to residual oxygen (micro-anaerobic conditions). Under aerobic conditions indigo (IN-stains) generally dominated the effects of MDAB staining. For example indicator system I4a/MDAB stained colonies violet under anaerobic but indigo blue under aerobic conditions.

| Compound | D: Diffusion around colonies [1] | G: Growth of colonies [1] | I: Intensity of color [1] | L: Localization on colonies [1] | S: Size of colonies [1] | C: Color of colonies [4] | F: Fluorescence of colonies [4] | G: Growth of colonies [4] | C: Color of colonies [5] | F: Fluorescence of colonies [5] | G: Growth of colonies [5] | F: Fluorescence of colonies (hue) [6] | further results |
| --- | --- | --- | --- | --- | --- | --- | --- | --- | --- | --- | --- | --- | --- |
| O=C(c1ccccc1)c1ccccc1-n1cc(O[C@@H]2O[C@H](CO)[C@H](O)[C@H](O)[C@H]2O)c2ccc(Cl)cc21 [Indicator I21a, 1-(2-Benzoylphenyl)-6-chloro-1H-indol-3-yl-beta-D-galactopyranoside] | +/− | + | + | + | 0.7 mm | − | − | + | − | +/− | + | y-g | Color of colonies UV (366 nm) [2]: Yellow-orange on a dark background; Color of colonies white/visible [2]: Yellow; Growth [2]: +; Product of incubation with beta-D-galactosidase ([3]; 24 h): bright yellow precipitate |
| COc1ccc(C(=O)c2ccccc2-n2cc(O[C@@H]3O[C@H](CO)[C@H](O)[C@H](O)[C@H]3O)c3c(Cl)c(Br)ccc32)c(OC)c1 [Indicator I28a, 5-Bromo-4-chloro-1-[2-(2,4-dimethoxybenzoyl)phenyl]-1H-indol-3-yl-beta-D-galactopyranoside] |  |  |  |  |  | − | − | + | − | − | + |  | F: Fluorescence of colonies (colour) ([7]; 24 h, 366 nm UV): (red); C: Color of colonies (colour of stain) ([7]; 24 h on Nutrient Agar): orange; G: Growth of colonies ([7]; E. coli, 24 h): +; L: Localization of stain on colonies ([7]; E. coli, 24 h): +; F: Fluorescence of colonies (strength) ([7]; E. coli, 24 h, 366 nm UV): +/−; C: Color of colonies (strength) ([7]; E. coli, 24 h on Nutrient Agar): +; C: Color of colonies (strength) [8]: −; F: Fluorescence of colonies (strength) ([8]; 366 nm UV): − |
| 5-Bromo-4-chloro-1H-indol-3-yl-beta-D-galactopyranoside [Indicator I4a, reference compound] | ++ | +/− | +/− | − | pinpoint | − | − | + | − | − | + | − | colonial morphology, aerobic conditions [9]: Cream colored colonies; colonial morphology, microaerobic (anaerobic) conditions [9]: Cream colored colonies; IN staining under anaerobic conditions ([1]; E. coli, anaerobic): failure; Signal upon incubation with beta-D-galactosidase in the absence of oxygen ([3]; blend with MDAB, absence of oxygen): pink dye |
